The supplement of paper PMC8612539
In brackets after ≈: the same amount, converted by molar mass.

Test system: Escherichia coli
Assay: minimum inhibitory concentration (MIC)
Procedure: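 Broth microdilution MIC (Sensititre BOPO7F bovine plate, CLSI methods) of 19 antimicrobials against field isolates of P. multocida, M. haemolytica, H. somni (deep nasopharyngeal swabs) and E. coli, Enterococcus spp. (rectal swabs) from weaned dairy heifers. Incubation 16-24 h at 35 C. MIC is the lowest concentration preventing visible growth. Values with <= or > lie at the tested range limits. Trimethoprim-sulfamethoxazole is given as the trimethoprim component of a 1:19 mixture.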

CCN1CCN(c2cc3c(cc2F)c(=O)c(C(=O)O)cn3C2CC2)CC1 [Enrofloxacin]
Settings	minimum inhibitory concentration [µg/mL]
isolate (source animal id): 8	≤ 0.12
isolate (source animal id): 9	> 2
isolate (source animal id): 10	≤ 0.12
isolate (source animal id): 11	≤ 0.12
isolate (source animal id): 12	> 2
isolate (source animal id): 13	≤ 0.12
isolate (source animal id): 14	0.5 (≈ 1.39 µM)
isolate (source animal id): 15	≤ 0.12
isolate (source animal id): 16	≤ 0.12
isolate (source animal id): 98	≤ 0.12
isolate (source animal id): 99	≤ 0.12
isolate (source animal id): 100	≤ 0.12
isolate (source animal id): 101	≤ 0.12
isolate (source animal id): 102	≤ 0.12
isolate (source animal id): 103	≤ 0.12
isolate (source animal id): 104	≤ 0.12
isolate (source animal id): 105	≤ 0.12
isolate (source animal id): 106	> 2
isolate (source animal id): 107	≤ 0.12
isolate (source animal id): 108	≤ 0.12
isolate (source animal id): 109	≤ 0.12
isolate (source animal id): 110	≤ 0.12
isolate (source animal id): 111	> 2
isolate (source animal id): 112	≤ 0.12
isolate (source animal id): 113	1 (≈ 2.78 µM)
isolate (source animal id): 114	≤ 0.12
isolate (source animal id): 115	1 (≈ 2.78 µM)
isolate (source animal id): 116	1 (≈ 2.78 µM)
isolate (source animal id): 117	≤ 0.12
isolate (source animal id): 118	0.5 (≈ 1.39 µM)
isolate (source animal id): 119	> 2
isolate (source animal id): 120	1 (≈ 2.78 µM)
isolate (source animal id): 121	≤ 0.12
isolate (source animal id): 122	≤ 0.12
isolate (source animal id): 123	≤ 0.12
isolate (source animal id): 124	> 2
isolate (source animal id): 125	≤ 0.12
isolate (source animal id): 126	> 2
isolate (source animal id): 127	≤ 0.12
isolate (source animal id): 128	≤ 0.12
isolate (source animal id): 129	1 (≈ 2.78 µM)
isolate (source animal id): 130	≤ 0.12
isolate (source animal id): 131	2 (≈ 5.56 µM)
isolate (source animal id): 132	0.5 (≈ 1.39 µM)
isolate (source animal id): 133	≤ 0.12
isolate (source animal id): 134	≤ 0.12
isolate (source animal id): 135	≤ 0.12
isolate (source animal id): 136	≤ 0.12
isolate (source animal id): 137	0.5 (≈ 1.39 µM)
isolate (source animal id): 138	> 2
isolate (source animal id): 139	0.25 (≈ 0.696 µM)
isolate (source animal id): 140	≤ 0.12
isolate (source animal id): 141	≤ 0.12
isolate (source animal id): 142	≤ 0.12
isolate (source animal id): 143	1 (≈ 2.78 µM)
isolate (source animal id): 144	> 2
isolate (source animal id): 145	≤ 0.12
isolate (source animal id): 146	0.5 (≈ 1.39 µM)
isolate (source animal id): 147	> 2
isolate (source animal id): 148	0.25 (≈ 0.696 µM)
isolate (source animal id): 149	≤ 0.12
isolate (source animal id): 150	≤ 0.12
isolate (source animal id): 151	≤ 0.12
isolate (source animal id): 152	≤ 0.12
isolate (source animal id): 153	≤ 0.12
isolate (source animal id): 154	0.5 (≈ 1.39 µM)
isolate (source animal id): 155	≤ 0.12
isolate (source animal id): 156	1 (≈ 2.78 µM)
isolate (source animal id): 157	≤ 0.12
isolate (source animal id): 158	≤ 0.12
isolate (source animal id): 159	≤ 0.12
isolate (source animal id): 160	≤ 0.12
isolate (source animal id): 161	≤ 0.12
isolate (source animal id): 162	> 2
isolate (source animal id): 163	≤ 0.12
isolate (source animal id): 164	≤ 0.12
isolate (source animal id): 165	≤ 0.12
isolate (source animal id): 166	≤ 0.12
isolate (source animal id): 167	≤ 0.12
isolate (source animal id): 168	≤ 0.12
isolate (source animal id): 169	≤ 0.12
isolate (source animal id): 170	≤ 0.12
isolate (source animal id): 171	≤ 0.12
isolate (source animal id): 172	≤ 0.12
isolate (source animal id): 173	≤ 0.12
isolate (source animal id): 174	≤ 0.12
isolate (source animal id): 175	≤ 0.12
isolate (source animal id): 176	≤ 0.12
isolate (source animal id): 177	≤ 0.12
isolate (source animal id): 178	≤ 0.12
isolate (source animal id): 179	≤ 0.12
isolate (source animal id): 180	≤ 0.12
isolate (source animal id): 181	≤ 0.12
isolate (source animal id): 182	≤ 0.12
isolate (source animal id): 183	≤ 0.12
isolate (source animal id): 184	≤ 0.12
isolate (source animal id): 185	≤ 0.12
isolate (source animal id): 186	≤ 0.12
isolate (source animal id): 187	≤ 0.12
isolate (source animal id): 188	2 (≈ 5.56 µM)

CS(=O)(=O)c1ccc([C@@H](O)[C@@H](CF)NC(=O)C(Cl)Cl)cc1 [Florfenicol]
Settings	minimum inhibitory concentration [µg/mL]
isolate (source animal id): 8	4 (≈ 11.2 µM)
isolate (source animal id): 9	> 8
isolate (source animal id): 10	4 (≈ 11.2 µM)
isolate (source animal id): 11	2 (≈ 5.58 µM)
isolate (source animal id): 12	> 8
isolate (source animal id): 13	8 (≈ 22.3 µM)
isolate (source animal id): 14	> 8
isolate (source animal id): 15	> 8
isolate (source animal id): 16	> 8
isolate (source animal id): 98	2 (≈ 5.58 µM)
isolate (source animal id): 99	4 (≈ 11.2 µM)
isolate (source animal id): 100	> 8
isolate (source animal id): 101	> 8
isolate (source animal id): 102	> 8
isolate (source animal id): 103	4 (≈ 11.2 µM)
isolate (source animal id): 104	> 8
isolate (source animal id): 105	> 8
isolate (source animal id): 106	> 8
isolate (source animal id): 107	> 8
isolate (source animal id): 108	> 8
isolate (source animal id): 109	> 8
isolate (source animal id): 110	> 8
isolate (source animal id): 111	4 (≈ 11.2 µM)
isolate (source animal id): 112	> 8
isolate (source animal id): 113	> 8
isolate (source animal id): 114	4 (≈ 11.2 µM)
isolate (source animal id): 115	> 8
isolate (source animal id): 116	> 8
isolate (source animal id): 117	> 8
isolate (source animal id): 118	> 8
isolate (source animal id): 119	> 8
isolate (source animal id): 120	> 8
isolate (source animal id): 121	> 8
isolate (source animal id): 122	> 8
isolate (source animal id): 123	> 8
isolate (source animal id): 124	> 8
isolate (source animal id): 125	> 8
isolate (source animal id): 126	> 8
isolate (source animal id): 127	> 8
isolate (source animal id): 128	> 8
isolate (source animal id): 129	> 8
isolate (source animal id): 130	> 8
isolate (source animal id): 131	> 8
isolate (source animal id): 132	> 8
isolate (source animal id): 133	> 8
isolate (source animal id): 134	> 8
isolate (source animal id): 135	8 (≈ 22.3 µM)
isolate (source animal id): 136	> 8
isolate (source animal id): 137	> 8
isolate (source animal id): 138	> 8
isolate (source animal id): 139	> 8
isolate (source animal id): 140	4 (≈ 11.2 µM)
isolate (source animal id): 141	> 8
isolate (source animal id): 142	> 8
isolate (source animal id): 143	> 8
isolate (source animal id): 144	> 8
isolate (source animal id): 145	> 8
isolate (source animal id): 146	> 8
isolate (source animal id): 147	> 8
isolate (source animal id): 148	> 8
isolate (source animal id): 149	4 (≈ 11.2 µM)
isolate (source animal id): 150	> 8
isolate (source animal id): 151	> 8
isolate (source animal id): 152	> 8
isolate (source animal id): 153	> 8
isolate (source animal id): 154	> 8
isolate (source animal id): 155	> 8
isolate (source animal id): 156	> 8
isolate (source animal id): 157	> 8
isolate (source animal id): 158	> 8
isolate (source animal id): 159	> 8
isolate (source animal id): 160	> 8
isolate (source animal id): 161	> 8
isolate (source animal id): 162	> 8
isolate (source animal id): 163	> 8
isolate (source animal id): 164	> 8
isolate (source animal id): 165	> 8
isolate (source animal id): 166	> 8
isolate (source animal id): 167	8 (≈ 22.3 µM)
isolate (source animal id): 168	2 (≈ 5.58 µM)
isolate (source animal id): 169	8 (≈ 22.3 µM)
isolate (source animal id): 170	4 (≈ 11.2 µM)
isolate (source animal id): 171	4 (≈ 11.2 µM)
isolate (source animal id): 172	2 (≈ 5.58 µM)
isolate (source animal id): 173	> 8
isolate (source animal id): 174	4 (≈ 11.2 µM)
isolate (source animal id): 175	8 (≈ 22.3 µM)
isolate (source animal id): 176	4 (≈ 11.2 µM)
isolate (source animal id): 177	> 8
isolate (source animal id): 178	> 8
isolate (source animal id): 179	4 (≈ 11.2 µM)
isolate (source animal id): 180	4 (≈ 11.2 µM)
isolate (source animal id): 181	> 8
isolate (source animal id): 182	4 (≈ 11.2 µM)
isolate (source animal id): 183	> 8
isolate (source animal id): 184	4 (≈ 11.2 µM)
isolate (source animal id): 185	> 8
isolate (source animal id): 186	4 (≈ 11.2 µM)
isolate (source animal id): 187	> 8
isolate (source animal id): 188	> 8
